# Article PMC8037182, “Solvothermal Synthesis of Multiple Dihydropyrimidinones at a Time as Inhibitors of Eg5” (Molecules, 2021)
# pIC50: −log10 of the molar value.
# What was measured:
# Caco-2 cell line = experiment: Cytotoxicity MTS assay, Caco-2 cell line; assay type: cell-based; conditions: for OD490 Mean / OD490 Well 1 / OD490 Well 2 / OD490 Well 3: Caco-2 cell line
# Procedure: (§1) The positive compounds (IC50 < 100 μM) obtained from the primary Eg5 motor protein ATPase assay were tested for antiproliferative activity in vitro against Caco-2 cell line, Hela cell line, L929 cell line and T24 cell line by performing MTS assay. Cells were introduced into 96-well plates at a density of 1000 cells per well. After 24 h incubation, the cells were exposed with compounds at final concentrations ranging from 0.5 to 100 µM for 24 h. DMSO was used at a final concentration of 0.025% as blank control, monastrol was used as the positive control. Then 20 µL (CellTiter 96® AQueous One Solution Promega, Madison, WI, USA) reagent was added in each well. After 2 h at 37 °C in a 80% humidified, 5% CO2 atmosphere, the absorbance at 490 nm was recorded using a microplate reader (BIO-RAD iMark^TM). The results were obtained in three independent duplicate experiments. The primary data were shown in Supplementary Materials Tables S4–S7. The IC50 values for these compounds were calculated from a non-linear regression graph plotted between the percentage of cell viability and concentration with SPSS17.0 software.
# Hela cell line = experiment: Cytotoxicity MTS assay, Hela cell line; assay type: cell-based; conditions: for OD490 value, Mean / OD490 value, Well 1 / OD490 value, Well 2 / OD490 value, Well 3: Hela cell line, MTS
# Procedure: as §1
smiles,measurement,setting,value
CCOC(=O)c1[nH]c(C2NC(=O)NC(C)=C2C(=O)Nc2ccccc2OC)c(C(=O)OC)c1C (centres unmarked) [D3],OD490 Mean,"Caco-2 cell line; 0.5μM, first assay",0.6387
same,OD490 Well 1,"Caco-2 cell line; 0.5μM, first assay",0.6262
same,OD490 Well 2,"Caco-2 cell line; 0.5μM, first assay",0.6384
same,OD490 Well 3,"Caco-2 cell line; 0.5μM, first assay",0.6515
same,OD490 Mean,"Caco-2 cell line; 0.5μM, second assay",0.7146
same,OD490 Well 1,"Caco-2 cell line; 0.5μM, second assay",0.7283
same,OD490 Well 2,"Caco-2 cell line; 0.5μM, second assay",0.7863
same,OD490 Well 3,"Caco-2 cell line; 0.5μM, second assay",0.6291
same,OD490 Mean,"Caco-2 cell line; 0.5μM, third assay",0.6707
same,OD490 Well 1,"Caco-2 cell line; 0.5μM, third assay",0.6256
same,OD490 Well 2,"Caco-2 cell line; 0.5μM, third assay",0.6879
same,OD490 Well 3,"Caco-2 cell line; 0.5μM, third assay",0.6985
same,OD490 Mean,"Caco-2 cell line; 1μM, first assay",0.6598
same,OD490 Well 1,"Caco-2 cell line; 1μM, first assay",0.6405
same,OD490 Well 2,"Caco-2 cell line; 1μM, first assay",0.6612
same,OD490 Well 3,"Caco-2 cell line; 1μM, first assay",0.6777
same,OD490 Mean,"Caco-2 cell line; 1μM, second assay",0.6524
same,OD490 Well 1,"Caco-2 cell line; 1μM, second assay",0.6596
same,OD490 Well 2,"Caco-2 cell line; 1μM, second assay",0.7226
same,OD490 Well 3,"Caco-2 cell line; 1μM, second assay",0.5749
same,OD490 Mean,"Caco-2 cell line; 1μM, third assay",0.7014
same,OD490 Well 1,"Caco-2 cell line; 1μM, third assay",0.6954
same,OD490 Well 2,"Caco-2 cell line; 1μM, third assay",0.6888
same,OD490 Well 3,"Caco-2 cell line; 1μM, third assay",0.7201
same,OD490 Mean,"Caco-2 cell line; 10μM, first assay",0.6769
same,OD490 Well 1,"Caco-2 cell line; 10μM, first assay",0.6754
same,OD490 Well 2,"Caco-2 cell line; 10μM, first assay",0.6571
same,OD490 Well 3,"Caco-2 cell line; 10μM, first assay",0.6982
same,OD490 Mean,"Caco-2 cell line; 10μM, second assay",0.7108
same,OD490 Well 1,"Caco-2 cell line; 10μM, second assay",0.7146
same,OD490 Well 2,"Caco-2 cell line; 10μM, second assay",0.7063
same,OD490 Well 3,"Caco-2 cell line; 10μM, second assay",0.7114
same,OD490 Mean,"Caco-2 cell line; 10μM, third assay",0.7093
same,OD490 Well 1,"Caco-2 cell line; 10μM, third assay",0.6912
same,OD490 Well 2,"Caco-2 cell line; 10μM, third assay",0.7365
same,OD490 Well 3,"Caco-2 cell line; 10μM, third assay",0.7003
same,OD490 Mean,"Caco-2 cell line; 25μM, first assay",0.6846
same,OD490 Well 1,"Caco-2 cell line; 25μM, first assay",0.6410
same,OD490 Well 2,"Caco-2 cell line; 25μM, first assay",0.7249
same,OD490 Well 3,"Caco-2 cell line; 25μM, first assay",0.6880
same,OD490 Mean,"Caco-2 cell line; 25μM, second assay",0.6529
same,OD490 Well 1,"Caco-2 cell line; 25μM, second assay",0.662
same,OD490 Well 2,"Caco-2 cell line; 25μM, second assay",0.6871
same,OD490 Well 3,"Caco-2 cell line; 25μM, second assay",0.6097
same,OD490 Mean,"Caco-2 cell line; 25μM, third assay",0.6888
same,OD490 Well 1,"Caco-2 cell line; 25μM, third assay",0.6989
same,OD490 Well 2,"Caco-2 cell line; 25μM, third assay",0.6784
same,OD490 Well 3,"Caco-2 cell line; 25μM, third assay",0.6891
same,OD490 Mean,"Caco-2 cell line; 50μM, first assay",0.7773
same,OD490 Well 1,"Caco-2 cell line; 50μM, first assay",0.7708
same,OD490 Well 2,"Caco-2 cell line; 50μM, first assay",0.7874
same,OD490 Well 3,"Caco-2 cell line; 50μM, first assay",0.7736
same,OD490 Mean,"Caco-2 cell line; 50μM, second assay",0.7093
same,OD490 Well 1,"Caco-2 cell line; 50μM, second assay",0.7521
same,OD490 Well 2,"Caco-2 cell line; 50μM, second assay",0.7258
same,OD490 Well 3,"Caco-2 cell line; 50μM, second assay",0.6501
same,OD490 Mean,"Caco-2 cell line; 50μM, third assay",0.7169
same,OD490 Well 1,"Caco-2 cell line; 50μM, third assay",0.6532
same,OD490 Well 2,"Caco-2 cell line; 50μM, third assay",0.7354
same,OD490 Well 3,"Caco-2 cell line; 50μM, third assay",0.7621
same,OD490 Mean,"Caco-2 cell line; 100μM, first assay",0.5588
same,OD490 Well 1,"Caco-2 cell line; 100μM, first assay",0.5950
same,OD490 Well 2,"Caco-2 cell line; 100μM, first assay",0.5357
same,OD490 Well 3,"Caco-2 cell line; 100μM, first assay",0.5456
same,OD490 Mean,"Caco-2 cell line; 100μM, second assay",0.7013
same,OD490 Well 1,"Caco-2 cell line; 100μM, second assay",0.7196
same,OD490 Well 2,"Caco-2 cell line; 100μM, second assay",0.6757
same,OD490 Well 3,"Caco-2 cell line; 100μM, second assay",0.7086
same,OD490 Mean,"Caco-2 cell line; 100μM, third assay",0.7231
same,OD490 Well 1,"Caco-2 cell line; 100μM, third assay",0.7561
same,OD490 Well 2,"Caco-2 cell line; 100μM, third assay",0.7145
same,OD490 Well 3,"Caco-2 cell line; 100μM, third assay",0.6987
same,pIC50,"Caco-2 cell line; MTS assay, 24 h exposure",< 3.82
same,"OD490 value, Mean","Hela cell line; 0.5μM, first assay",2.7753
same,"OD490 value, Well 1","Hela cell line; 0.5μM, first assay",2.9485
same,"OD490 value, Well 2","Hela cell line; 0.5μM, first assay",2.6032
same,"OD490 value, Well 3","Hela cell line; 0.5μM, first assay",2.7743
same,"OD490 value, Mean","Hela cell line; 0.5μM, second assay",2.7117
same,"OD490 value, Well 1","Hela cell line; 0.5μM, second assay",2.7664
same,"OD490 value, Well 2","Hela cell line; 0.5μM, second assay",2.9230
same,"OD490 value, Well 3","Hela cell line; 0.5μM, second assay",2.4458
same,"OD490 value, Mean","Hela cell line; 0.5μM, third assay",2.8303
same,"OD490 value, Well 1","Hela cell line; 0.5μM, third assay",2.8863
same,"OD490 value, Well 2","Hela cell line; 0.5μM, third assay",2.8745
same,"OD490 value, Well 3","Hela cell line; 0.5μM, third assay",2.7301
same,"OD490 value, Mean","Hela cell line; 1μM, first assay",2.5355
same,"OD490 value, Well 1","Hela cell line; 1μM, first assay",2.6242
same,"OD490 value, Well 2","Hela cell line; 1μM, first assay",2.5242
same,"OD490 value, Well 3","Hela cell line; 1μM, first assay",2.4580
same,"OD490 value, Mean","Hela cell line; 1μM, second assay",2.6019
same,"OD490 value, Well 1","Hela cell line; 1μM, second assay",2.7530
same,"OD490 value, Well 2","Hela cell line; 1μM, second assay",2.3014
same,"OD490 value, Well 3","Hela cell line; 1μM, second assay",2.7514
same,"OD490 value, Mean","Hela cell line; 1μM, third assay",2.6769
same,"OD490 value, Well 1","Hela cell line; 1μM, third assay",2.6365
same,"OD490 value, Well 2","Hela cell line; 1μM, third assay",2.7412
same,"OD490 value, Well 3","Hela cell line; 1μM, third assay",2.6531
same,"OD490 value, Mean","Hela cell line; 10μM, first assay",2.6047
same,"OD490 value, Well 1","Hela cell line; 10μM, first assay",2.6883
same,"OD490 value, Well 2","Hela cell line; 10μM, first assay",2.6311
same,"OD490 value, Well 3","Hela cell line; 10μM, first assay",2.4948
same,"OD490 value, Mean","Hela cell line; 10μM, second assay",2.6182
same,"OD490 value, Well 1","Hela cell line; 10μM, second assay",2.7032
same,"OD490 value, Well 2","Hela cell line; 10μM, second assay",2.6012
same,"OD490 value, Well 3","Hela cell line; 10μM, second assay",2.5503
same,"OD490 value, Mean","Hela cell line; 10μM, third assay",2.6419
same,"OD490 value, Well 1","Hela cell line; 10μM, third assay",2.7745
same,"OD490 value, Well 2","Hela cell line; 10μM, third assay",2.6563
same,"OD490 value, Well 3","Hela cell line; 10μM, third assay",2.4949
same,"OD490 value, Mean","Hela cell line; 25μM, first assay",2.3973
same,"OD490 value, Well 1","Hela cell line; 25μM, first assay",2.3040
same,"OD490 value, Well 2","Hela cell line; 25μM, first assay",2.5337
same,"OD490 value, Well 3","Hela cell line; 25μM, first assay",2.3542
same,"OD490 value, Mean","Hela cell line; 25μM, second assay",2.3999
same,"OD490 value, Well 1","Hela cell line; 25μM, second assay",2.5301
same,"OD490 value, Well 2","Hela cell line; 25μM, second assay",2.4698
same,"OD490 value, Well 3","Hela cell line; 25μM, second assay",2.1998
same,"OD490 value, Mean","Hela cell line; 25μM, third assay",2.4241
same,"OD490 value, Well 1","Hela cell line; 25μM, third assay",2.5355
same,"OD490 value, Well 2","Hela cell line; 25μM, third assay",2.5124
same,"OD490 value, Well 3","Hela cell line; 25μM, third assay",2.2245
same,"OD490 value, Mean","Hela cell line; 50μM, first assay",2.2890
same,"OD490 value, Well 1","Hela cell line; 50μM, first assay",2.3872
same,"OD490 value, Well 2","Hela cell line; 50μM, first assay",2.2920
same,"OD490 value, Well 3","Hela cell line; 50μM, first assay",2.1878
same,"OD490 value, Mean","Hela cell line; 50μM, second assay",2.2189
same,"OD490 value, Well 1","Hela cell line; 50μM, second assay",2.3332
same,"OD490 value, Well 2","Hela cell line; 50μM, second assay",2.3089
same,"OD490 value, Well 3","Hela cell line; 50μM, second assay",2.0147
same,"OD490 value, Mean","Hela cell line; 50μM, third assay",2.2950
same,"OD490 value, Well 1","Hela cell line; 50μM, third assay",2.4301
same,"OD490 value, Well 2","Hela cell line; 50μM, third assay",2.3354
same,"OD490 value, Well 3","Hela cell line; 50μM, third assay",2.1196
same,"OD490 value, Mean","Hela cell line; 100μM, first assay",1.7776
same,"OD490 value, Well 1","Hela cell line; 100μM, first assay",1.7277
same,"OD490 value, Well 2","Hela cell line; 100μM, first assay",1.8895
same,"OD490 value, Well 3","Hela cell line; 100μM, first assay",1.7156
same,"OD490 value, Mean","Hela cell line; 100μM, second assay",1.7632
same,"OD490 value, Well 1","Hela cell line; 100μM, second assay",1.6245
same,"OD490 value, Well 2","Hela cell line; 100μM, second assay",1.8996
same,"OD490 value, Well 3","Hela cell line; 100μM, second assay",1.7654
same,"OD490 value, Mean","Hela cell line; 100μM, third assay",1.7923
same,"OD490 value, Well 1","Hela cell line; 100μM, third assay",1.6654
same,"OD490 value, Well 2","Hela cell line; 100μM, third assay",1.8247
same,"OD490 value, Well 3","Hela cell line; 100μM, third assay",1.8869
same,pIC50,"Hela cell line; MTS assay, 24 h exposure",3.94
